Data as given in patent US20230286946A1, “DIFLUOROMETHYL-PYRIDIN-2-YL TRIAZOLES” (Boehringer Ingelheim International GmbH, priority 2020, published 2023).

How the values were obtained:
α5ß2 γ2 GABAA Receptor = molecular target: T1, α5ß2 γ2 GABAA Receptor (Homo sapiens, UniProt P18507+P31644); assay: Assay B: in vitro evaluation of modulation of α5ß2γ2 GABAA receptor, two-electrode voltage clamp in oocytes; assay type: cell-based; settings: for EC50: co-application with 0.5 μM GABA, oocytes, read-out: Assay B: GABAA α 5 β 3 γ 2 EC50
T1 sequence (P31644 32-462): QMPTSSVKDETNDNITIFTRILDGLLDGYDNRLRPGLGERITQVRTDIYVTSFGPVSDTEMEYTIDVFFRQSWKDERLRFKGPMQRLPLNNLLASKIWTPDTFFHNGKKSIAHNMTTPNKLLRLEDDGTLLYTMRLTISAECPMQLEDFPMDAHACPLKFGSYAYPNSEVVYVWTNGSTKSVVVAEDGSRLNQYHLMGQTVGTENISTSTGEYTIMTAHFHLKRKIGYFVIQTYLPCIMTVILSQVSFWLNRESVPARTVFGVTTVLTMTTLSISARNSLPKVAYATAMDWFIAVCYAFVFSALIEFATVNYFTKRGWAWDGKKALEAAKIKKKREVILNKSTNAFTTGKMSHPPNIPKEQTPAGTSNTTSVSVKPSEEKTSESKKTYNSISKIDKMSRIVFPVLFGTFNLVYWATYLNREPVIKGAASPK
T1 sequence (P18507 40-376 limits assumed): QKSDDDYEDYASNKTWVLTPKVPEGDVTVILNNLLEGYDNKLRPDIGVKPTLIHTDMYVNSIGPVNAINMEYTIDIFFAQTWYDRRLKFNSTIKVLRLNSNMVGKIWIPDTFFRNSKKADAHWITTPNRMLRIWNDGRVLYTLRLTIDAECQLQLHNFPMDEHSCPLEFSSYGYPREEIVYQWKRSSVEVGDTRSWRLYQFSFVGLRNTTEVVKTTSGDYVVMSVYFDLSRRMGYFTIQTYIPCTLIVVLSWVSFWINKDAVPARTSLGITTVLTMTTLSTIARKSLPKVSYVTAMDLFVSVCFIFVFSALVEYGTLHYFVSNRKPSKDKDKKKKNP
Method: Assay B: In Vitro Evaluation of Modulation of α5ß2 γ2 GABAA Receptor.
Modulatory efficacy of compounds of formular (I) is determined electrophysiological recordings in oocytes using the two-electrode voltage clamp (TEVC) technique. Oocytes are injected with cRNA for human GABAA receptor subunits α5, ß2 and γ2 in a 3:1:3 ratio and modulatory efficacy is evaluated by co-applications with a submaximal EC5-20 GABA concentration (0.5 μM) termed GABA control. As a standard, the compounds are tested in five concentrations (3.16, 0.316, 0.0316, 0.00316 and 0.000316 μM) on each oocyte starting with the lowest concentration. Background subtracted peak current amplitudes are normalized to the respective GABAcontrol current, converted to % change and depicted +/−S.E.M. as a function of increasing compound concentrations. Plotted datapoints are fitted to the empirical Hill equation using non-linear regression. 95% confidence intervals for maximal efficacy (Bottom) and potency (Log EC50) are derived from this fitting routine.

human MDR1 P-gp = assay: Assessment of efflux in MDCK cells transfected with the human MDR1 gene; assay type: in vitro ADME, canine; settings: dog, pH 7.4, 37° C.; for Papp A→B: apical-to-basal, read-out: MDCK-PGP A-B; for efflux ratio: read-out: MDCK-PGP Efflux ratio [PEBA/PEAB]
Method: Assessment of efflux in Madin-Darby canine kidney (MDCK) cells transfected with the human MDR1 gene to assess brain penetration (Drug Metabolism and Disposition February 2008, 36 (2) 268-275; DOI: https://doi.org/10.1124/dmd.107.017434)
Apparent permeability coefficients (PE) of the compounds across the MDCK-MDR1 cell monolayers are measured (pH 7.4, 37° C.) in apical-to-basal (AB) and basal-to-apical (BA) transport direction. AB permeability (PEAB) represents drug absorption from the blood into the 35 brain and BA permeability (PEBA) drug efflux from the brain back into the blood via both passive permeability as well as active transport mechanisms mediated by efflux and uptake transporters that are expressed on the MDCK-MDR1 cells, predominantly by the overexpressed human MDR1 P-gp. The compounds are assigned to permeability/absorption classes by comparison of the AB permeabilities with the AB permeabilities of reference compounds with known in vitro permeability and oral absorption in the human. Identical or similar permeabilities in both transport directions indicate passive permeation, vectorial permeability points to additional active transport mechanisms. Higher PEBA than PEAB indicates the involvement of active efflux mediated by MDR1 P-gp. Active transport is concentration-dependently saturable.
MDCK-MDR1 cells (1-2×10e5 cells/1 cm2 area) are seeded on filter inserts (Costar transwell polycarbonate or PET filters, 0.4 μm pore size) and cultured (DMEM) for 7 days. Subsequently, the MDR1 expression is boosted by culturing the cells with 5 mM sodium butyrate in full medium for 2 days. Compounds are dissolved in appropriate solvent (like DMSO, 1-20 mM stock solutions). Stock solutions are diluted with HTP-4 buffer (128.13 mM NaCl, 5.36 mM KCl, 1 mM MgSO4, 1.8 mM CaCl2, 4.17 mM NaHCO3, 1.19 mM Na2HPO4×7H2O, 0.41 mM NaH2PO4×H2O, 15 mM HEPES, 20 mM glucose, 0.25% BSA, pH 7.4) to prepare the transport solutions (0.1-300 μM compound, final DMSO <=0.5%). The transport solution (TL) is applied to the apical or basolateral donor side for measuring A-B or B-A permeability (3 filter replicates), respectively. The receiver side contains the same buffer as the donor side. Samples are collected at the start and end of experiment from the donor and at various time intervals for up to 2 hours also from the receiver side for concentration measurement by HPLC-MS/MS or scintillation counting. Sampled receiver volumes are replaced with fresh receiver solution.

[1] = Metabolic stability in human liver microsomes (Human MST); assay type: in vitro ADME; settings: pH 7.6, pooled human liver microsomes, 37° C., read-out: Human MST t½
Method: Assessment of Metabolic Stability in Human Liver Microsomes (Human MST) The metabolic stability of the compounds according to the invention may be investigated as follows: The metabolic degradation of the test compound is assayed at 37° C. with pooled human liver microsomes. The final incubation volume of 100 μL per time point contains TRIS buffer pH 7.6 at room temperature (0.1 M), MgCl2 (5 mM), microsomal protein (1 mg/mL) and the test compound at a final concentration of 1 μM. Following a short pre-incubation period at 37° C., the reactions are initiated by addition of beta-nicotinamide adenine dinucleotide phosphate, reduced form (NADPH, 1 mM), and terminated by transferring an aliquot into solvent after different time points. After centrifugation (10000 g, 5 min), an aliquot of the supernatant is assayed by LCMS/MS for the amount of parent compound. The half-life (t1/2) is determined by the slope of the semi-logarithmic plot of the concentration-time profile.

| Compound | Assay B: GABAA α 5 β 3 γ 2 Emax vs GABA (α5ß2 γ2 GABAA Receptor) [%] | EC50 (α5ß2 γ2 GABAA Receptor) [µM] | Papp A→B (human MDR1 P-gp) [×10⁻⁶ cm/s] | efflux ratio (human MDR1 P-gp) | half-life at 1 μM [1] [h] |
| --- | --- | --- | --- | --- | --- |
| Cc1nnn(-c2ccc(C(F)F)cn2)c1COc1ccc(-c2cn[nH]c2)nn1 [Example 4] | -22.3 | 0.093 | 57 | 0.8 | 0.667 |
| Cc1nnn(-c2ccc(C(F)F)cn2)c1COc1ccc(-c2ccnnc2)nn1 [Example 17] | -33.2 | 0.001 | 51 | 1 | > 2.17 |
| Cc1ncc(-c2ccc(OCc3c(C)nnn3-c3ccc(C(F)F)cn3)nn2)o1 [Example 18] | -28.7 | 0.0233 | 71 | 0.6 | > 2.17 |
| Cc1nnn(-c2ccc(C(F)F)cn2)c1COc1ccc(-c2c[nH]c(=O)c(F)c2)nn1 [Example 20] | -32.3 | 0.0116 | 15 | 2 | > 2.17 |
| CCn1cc(-c2ccc(OCc3c(-c4ccc(C(F)F)cn4)nnn3C)nn2)cn1 [Example 22] | -14.9 | 0.0269 | 40 | 1.1 | > 2.17 |
| Cn1nnc(-c2ccc(C(F)F)cn2)c1COc1ccc(-c2cn[nH]c2)nn1 [Example 24] | -14.7 | 0.0098 | 10 | 6.6 | 1.03 |
| Cn1nnc(-c2ccc(C(F)F)cn2)c1COc1ccc(-c2cccc(C(N)=O)c2)nn1 [Example 28] | -20 | 0.0146 | 3 | 17.2 | > 2.17 |
| Cc1nnn(-c2ccc(C(F)F)cn2)c1COc1ccc(-n2cc(C#N)cn2)nn1 [Example 37] | -25.3 | 0.0373 | 59 | 0.4 | 2.15 |
| Cn1nnc(-c2ccc(C(F)F)cn2)c1COc1ccc(-c2cnccn2)nn1 [Example 39] | -24.6 | 0.354 | 59 | 0.6 | > 2.17 |
| Cc1ncnn1-c1ccc(OCc2c(-c3ccc(C(F)F)cn3)nnn2C)nn1 [Example 48, 3-({4-[5-(difluoromethyl)pyridin-2-yl]-1-methyl-1H-1,2,3-triazol-5-yl}methoxy)-6-(5-methyl-1H-1,2,4-triazol-1-yl)pyridazine] | -13.2 | 0.0789 | 69 | 0.8 | > 2.17 |
| Cn1nnc(-c2ccc(C(F)F)cn2)c1COc1ccc(-n2cnc(C#N)c2)nn1 [Example 52] | -16 | 0.002 | 18 | 2.7 | > 2.17 |
| Cc1nnn(-c2ccc(C(F)F)cn2)c1COc1ccc(-c2cnccn2)nn1 [Example 56, 3-({1-[5-(difluoromethyl)pyridin-2-yl]-4-methyl-1H-1,2,3-triazol-5-yl}methoxy)-6-(pyrazin-2-yl)pyridazine] | -17.7 | 0.0145 | 58 | 0.6 | > 2.17 |
